Values joined by “and” are separate entries in the source; they are usually repeats but may differ in a detail not shown here. Identical values can stand only once.
Columns and labels:
Type in all cases: cell-based
U937 cells = assay: Separation of drug treated and untreated leukemia cells, escape velocity; conditions: PMA 5 ug/mL, 6 hours
Procedure: PMA was dissolved in ethanol at a concentration of 5 mg/mL. 3 mls of U937 cells grown in RPMI 1640 media with supplements were removed from the culture flask and 1 ml was placed into each of three eppendorf tubes. Cells from the first tube were pelleted for 4 minutes at 10,000 rpm and resuspended in 250 uL PBS/1% BSA buffer for escape velocity measurements. PMA was added to the remaining two tubes of U937 cells to a final concentration of 5 ug/mL. These tubes were vortexed and placed in a 37° C. water bath for either one hour or six hours. At the end of the time point, the tube was removed, cells were pelleted and then resuspended as described above and escape velocity measurements taken.

HL-60 cells = assay: Cellular differentiation of HL-60, escape velocity
Description: HL-60 is a promyelocytic leukemia cell line that retains the capacity to undergo terminal differentiation and serves as a model system to study myeloid pathways of cellular differentiation. It is known that treatment of HL-60 cells with phorbol 12-myristate 13-acetate (PMA) causes the cells to differentiate into monocytes/macrophages. In addition, it is also known that treatment of HL-60 cells with dimethylsulfoxide (DMSO) causes these same cells to undergo granulocytic differentiation.
Initial tests were performed using HL-60 cells treated with PMA. HL-60 cells were seeded at about 1-3×10^6 cells per well in six well plates. The cells were treated with 200 ng/ml PMA while the control cells were treated with ethanol (EtOH) vehicle for four hours at 37° C. After incubation for four hours the treated cells were washed with PBS and re-fed with growth media. The treated HL-60 cells were then allowed to differentiate for 72 hours in normal growth media. After the 72 hour period, the untreated control cells were collected by centrifugation, washed with PBS and pelleted for resuspension at 1.5×10^6 cells/ml in PBS/1% BSA. Treated cells were trypsinized and collected by centrifugation then washed in PBS and pelleted for resuspension at 1×10^6 cells/ml in PBS/1% BSA. The cells were the subjected to Optophoretic analysis by measuring the escape velocities of the treated and control cells. Table 23 shown below illustrates the measured escape velocities of the undifferentiated and differentiated cells at 72 hours post treatment.

[1] = test system: CD11b expression in HL-60 cells; assay: FACS CD11b expression profile; conditions: 400 ng/ml PMA
Procedure: Fast scan analysis was also performed on HL-60 cells that were treated with PMA and DMSO. A time course evaluation of PMA treated HL-60 cells was performed with fast scan data taken at 16 hours, 24 hours, 40 hours, and 72 hours post-treatment with 400 ng/ml PMA. A control sample of HL-60 cells was also tested using EtOH as the vehicle for purposes of comparing the differentiated cells with the undifferentiated HL-60 cells. The PMA-treated and control cells were harvested and trypsinized. The samples were then resuspended in PBS/1% BSA. A set of samples was also obtained and left as pellets at 4° C. for subsequent FACS analysis.
FIG. 145 illustrates a histogram of the travel distance of the control cells as well as the PMA-treated cells at 16 hours, 24 hours, 40 hours, and 72 hours post-treatment. FIG. 146 illustrates the mean travel distances of the control cells as well as the PMA-treated cells at 16 hours, 24 hours, 40 hours, and 72 hours post-treatment. FIG. 147 illustrates the FACS CD11b expression profile in PMA-treated HL-60 cells as well as the control. CD11b is a known marker of cellular differentiation and is expressed on the surface of differentiating cells. […] The data illustrate that Optophoretic analysis can be used as an assay for the detection and quantification of cellular differentiation. […]

Compound: CCCCCCCCCCCCCC(=O)O[C@@H]1[C@@H](C)[C@@]2(O)[C@@H](C=C(CO)C[C@]3(O)C(=O)C(C)=C[C@@H]23)[C@@H]2C(C)(C)[C@]12OC(C)=O [PMA, phorbol 12 myristate 13-acetate]
- escape velocity as compared to the untreated cells (U937 cells): significantly higher escape velocity
- escape velocity, Average (HL-60 cells; HL-60 + PMA at 72 hours (differentiated), 200 ng/ml PMA for four hours): 14.0 μm/sec
- Escape Velocity, individual cell (HL-60 cells; HL-60 + PMA at 72 hours (differentiated), 200 ng/ml PMA for four hours, Cell No. 1 to 20): 14.0 μm/sec (3×) and 12.5 μm/sec (3×) and 16.5 μm/sec and 14.5 μm/sec (3×) and 13.0 μm/sec (2×) and 13.5 μm/sec (2×) and 15.5 μm/sec (2×) and 15.0 μm/sec (2×) and 16.0 μm/sec and 11.0 μm/sec
- increase in measured escape velocity as compared to the control cells (HL-60 cells; HL-60 + PMA at 72 hours, on average): about 2 μm/sec
- time after treatment at which a noticeable change in CD11b expression levels was observed [1]: about 40 hours

Source: US20040121307A1, “Early detection of cellular differentiation using optophoresis” (Genoptix, Inc, priority 2002, published 2004)
